Laboratory results published in patent US10039816B2, “Siderophore-based immunization against gram-negative bacteria” (Massachusetts Institute of Technology, priority 2014, dated 2018).

How the values were obtained:
[1] = coupling reaction conditions
Lipocalin-2 (LCN2) = Lipocalin-2 (LCN2) (Homo sapiens, UniProt P80188); conditions: e.g., sub-nanomolar or low-nanomolar for ferric enterobactin; cited from earlier work
enterobactin (Ent) = assay: ELISA for fecal anti-enterobactin IgA in immunized mice; type: in vivo, C57BL/6 mice; conditions: 14-21 days post-immunization, persisted up to 51 days post-immunization
Glu-Ent = type: in vivo; conditions: Peyer's patch cells, day 21 post-immunization; not in mock-immunized mice
S. Typhimurium = type: in vivo, Salmonella enterica serovar Typhimurium; conditions: for weight loss: C57BL/6 mice, 4 days after infection with 1×10^9 CFU S. Typhimurium, P=0.05
salmochelin (Glu-Ent) = assay: ELISA/dot blot for fecal anti-salmochelin IgA in immunized mice; type: in vivo, C57BL/6 mice; conditions: day 21 post-immunization
intestinal microbiota = assay: Microbiota analysis (16S rDNA, Illumina MiSeq) of colon content of immunized mice; type: in vivo; conditions: for Lactobacillus spp. fraction of the microbiota: immunized, infected mice, day 4; for S. Typhimurium fraction of the intestinal microbes: mice infected with S. Typhimurium for 4 days
[2] = tested on: pro-inflammatory cytokines (IL-17, IL-22), Lcn2; type: in vivo; conditions: infected vs uninfected mice
[3] = intranasal, first immunization and boost 14 days later; monitored up to 51 days; no sign of disease
Ent = type: in vivo; conditions: Peyer's patch cells, day 21 post-immunization; not in mock-immunized mice
[4] = responders, 96 h after infection

Sequence of Lipocalin-2 (LCN2) (P80188 21-198, species assumed): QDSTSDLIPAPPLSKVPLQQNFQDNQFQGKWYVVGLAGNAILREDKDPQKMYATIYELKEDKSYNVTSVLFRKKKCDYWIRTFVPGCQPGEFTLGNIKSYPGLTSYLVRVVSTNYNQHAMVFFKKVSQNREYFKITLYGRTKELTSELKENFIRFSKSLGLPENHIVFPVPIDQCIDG

O=C(N[C@H]1COC(=O)[C@@H](NC(=O)c2cccc(O)c2O)COC(=O)[C@@H](NC(=O)c2cccc(O)c2O)COC1=O)c1cccc(O)c1O [Enterobactin, enterobactin]
hydrolysis of the trilactone ring in aqueous solution [1]: slowly undergoes hydrolysis

O=C(N[C@H]1COC(=O)[C@@H](NC(=O)c2cccc([O-])c2[O-])COC(=O)[C@@H](NC(=O)c2cccc([O-])c2[O-])COC1=O)c1cccc([O-])c1[O-].[Fe+3] [ferric enterobactin]
capture by LCN2 (Lipocalin-2 (LCN2)): high affinity

CTB-Ent
specific anti-Ent IgA antibodies in feces (ELISA) (enterobactin (Ent)): detected | spots representing Glu-Ent-antibody complexes (ELISPOT) (Glu-Ent): detected | weight loss (S. Typhimurium): ~6% | bacterial burden of S. Typhimurium in the colon content (S. Typhimurium; in vivo): lower bacterial burden | Salmonella burden, Peyer's patches (S. Typhimurium; [4]): lower Salmonella burden | Salmonella burden, spleen (S. Typhimurium; [4]): lower Salmonella burden | Salmonella burden, terminal ileum (S. Typhimurium; [4]): lower Salmonella burden | IgA binding to Glu-Ent (di-glucosylated form) in fecal samples (salmochelin (Glu-Ent)): detected | Lactobacillus spp. fraction of the microbiota (intestinal microbiota): ~60% | S. Typhimurium fraction of the intestinal microbes (intestinal microbiota): 7% | level of Escherichia spp. (intestinal microbiota; vs low level in mock-immunized mice): further reduced | expression of pro-inflammatory cytokines (IL-17, IL-22) and Lcn2 in response to infection [2]: similarly upregulated | tolerability of the two immunizations [3]: well tolerated | spots representing Ent-antibody complexes (ELISPOT) (Ent): detected

Cholera toxin B subunit [CTB, reference compound]
weight loss (S. Typhimurium): ~10% | Lactobacillus spp. fraction of the microbiota (intestinal microbiota): ~19% | S. Typhimurium fraction of the intestinal microbes (intestinal microbiota): ca. 32% | expression of pro-inflammatory cytokines (IL-17, IL-22) and Lcn2 in response to infection [2]: similarly upregulated

salmochelins
capture by LCN2 (Lipocalin-2 (LCN2)): cannot capture
